Measurements as given in patent publication US6495570B2, “Combination drug therapy for glycolipid storage diseases” (G. D. Searle & Co., priority 1999, dated 2002).
Where “and” joins values, the source holds several entries; their conditions need not be identical. Equal values may be shown once.

Columns and labels:
[1] = Organ distribution of radiolabelled compound after oral gavage in the normal mouse; format: in vivo
Experimental: Mouse body fluids and organs were collected for different times (30, 60, 90 minutes) after gavage with radiolabelled compound. Radioactivity in each sample was determined and expressed as a percentage of radioactivity recovered. Solid bars, NN-DNJ, hatched bars, NB-DNJ.
Further evidence that longer alkyl chains are taken up-much better than the shorter alkyl chains has been obtained by in vivo studies with mouse.
Table 2. Recovery of radiolabelled compounds after administration in the normal mouse. Mouse body fluids and organs were collected at different times after gavage with radiolabelled compound. Radioactivity in each sample was determined and expressed as a percentage of radioactivity recovered (data from FIG. 5).

[2] = system: glycolipid biosynthesis in Chinese hamster ovary (CHO) cells; assay: Inhibition of glycolipid biosynthesis in CHO cells (radiolabelled palmitic acid, TLC, scanning densitometry); format: cell-based; conditions: for IC50: Cricetulus griseus, range quoted for variability of the radiolabelled products, read-out: IC50, inhibition of glycolipids (glucosylceramide and lactosylceramide bands)
Experimental: (§1) Cells were cultured for four days in the presence of radiolabelled palmitic acid and the following concentrations of compound:
(§2) After extraction the radioactively labelled glycolipids were separated by TLC and visualized by radioautography. NB-DNJ is N-butyl-DNJ. NN-DNJ is N-nonyl-DNJ.
(§3) Chinese Hamster Ovary (CHO) cells and human myeloid (HL-60) cells grown in the presence of varying concentrations of inhibitor in addition to a precursor (radiolabelled palmitic acid) of glycolipid biosynthesis were treated with solvents to extract the glycolipids by the procedure described by Platt et al., J. Biol. Chem. 269, 8362-8365 (1994).
(§4) The radiolabelled lipids were separated by TLC (FIG. 1) and bands corresponding to glucosylceramide and lactosylceramide were quantitated by scanning densitometry to estimate the reduction in glycolipid biosynthesis.
(§5) Table 1. […] Radiolabelled glucosylceramide and lactosylceramide bands from FIG. 1 were quantitated by scanning densitometry and the percentage of control (no treatment, track a, FIG. 1) expressed in comparison to compound dose. From the linear curve, an IC50 value was obtained. A range of values is quoted to represent variability of the radiolabelled products.

Hepatitis B virus (HBV) = conditions: based on inhibition of alpha-glucosidases in the ER; cited from earlier work
[3] = system: glycolipid biosynthesis in human myeloid (HL-60) cells; assay: Inhibition of glycolipid biosynthesis in HL-60 cells (radiolabelled palmitic acid, TLC, scanning densitometry); format: cell-based; conditions: for IC50: Homo sapiens, range quoted for variability of the radiolabelled products, read-out: IC50, inhibition of glycolipids (glucosylceramide and lactosylceramide bands)
Experimental: as §1, §2, §3, §4, §5

[4] = system: CHO, MDBK and HepG2 cells; assay: Uptake of radiolabelled compound into cultured cells (cell-associated radioactivity); format: in vitro ADME; conditions: incubated up to 24 hours
Experimental: FIG. 5 is a bar graph of estimated radioactivity. […] Cells were extensively washed and acid precipitated. After solution in NaOH, cell associated radioactivity was determined as a percentage of radiolabelled compound added.
The activity is explained by the differential uptake into cells.

[5] = system: human immunodeficiency virus (HIV); conditions: cited from earlier work
[6] = cited from earlier work
[7] = mice, oral 4800 mg/Kg/day; cited from earlier work
glycolipid biosynthesis = conditions: cited from earlier work

SMILES	% recovered, Brain ([1]; 30 min after gavage, mouse) [%]	% recovered, Liver ([1]; 30 min after gavage, mouse) [%]	% recovered, Brain ([1]; 60 min after gavage, mouse) [%]	% recovered, Liver ([1]; 60 min after gavage, mouse) [%]	% recovered, Brain ([1]; 90 min after gavage, mouse) [%]	% recovered, Liver ([1]; 90 min after gavage, mouse) [%]	IC50 [2] [nM]	IC50 ([3]; HL-60 cells) [nM]	dose required for activity against glycolipid biosynthesis (glycolipid biosynthesis) [mg/mL]	other results
CCCCCCCCCN1C[C@H](O)[C@@H](O)[C@H](O)[C@H]1CO [N-nonyl-DNJ, N-nonyl-1,5-dideoxy-1,5-imino-D-glucitol]	0.4	27.1	0.3	12.6	0.4	13.5	2000 to 2700	20 to 400	–	radioactivity recovered in the liver and brain, higher than N-butyl-DNJ ([1]; after 90 min, oral gavage, mouse): 10 fold; uptake into the brain versus N-butyl-DNJ ([1]; tests of organ distribution): five times better; inhibition of glycolipid biosynthesis, better than N-butyl-DNJ at equivalent concentrations [2]: about ten- to about twenty-fold better; inhibition of the Hepatitis B virus (HBV) (Hepatitis B virus (HBV)): effective; inhibition of glycolipid biosynthesis, better than N-butyl-DNJ at equivalent concentrations ([3]; HL-60 cells): about four hundred times better; cell-associated radioactivity, increase versus N-butyl-DNJ [4]: 3.5-5.0 fold
CCCCCCCCCCN1C[C@H](O)[C@@H](O)[C@H](O)[C@H]1CO [N-decyl-DNJ]	–	–	–	–	–	–	–	–	–	inhibition at times lower concentrations than N-butyl-DNJ ([3]; HL-60 cell-based assay): 50 times
CCCCN1C[C@H](O)[C@@H](O)[C@H](O)[C@H]1CO [N-butyl-DNJ, N-butyl-1,5-dideoxy-1,5-imino-D-glucitol]	0.2	8.5	0.1	2.8	0.03	0.9	25000 to 50000	1800 to 7300	0.01 to 0.1	effectiveness as an inhibitor of HIV versus the N-ethyl analog [5]: three log orders more effective; effectiveness as an inhibitor of HIV versus the N-methyl analog [5]: more than two log orders more effective; time of treatment to steady-state plasma concentration ([6]; clinical trial): 4-6 weeks; peak plasma concentration ([6]; oral, 100 mg three times daily, listed as ND-DNJ): 6.8 μM and 1.5 μg/ml; stable serum concentration [7]: 50 µM
CN1C[C@H](O)[C@@H](O)[C@H](O)[C@H]1CO [N-methyl analog]	–	–	–	–	–	–	–	–	–	activity against glycolipid biosynthesis (glycolipid biosynthesis): inactive
CCCCCCN1C[C@H](O)[C@@H](O)[C@H](O)[C@H]1CO [N-hexyl derivative of DNJ]	–	–	–	–	–	–	–	–	0.2	–
